assay: Lipophilicity, log D of the compound; type: physicochemical; conditions: octanol/water

| Compound | logD |
| --- | --- |
| CC(C)(CNC(=O)c1cnc2ccccc2n1)c1ccccc1 | 4 |
| CC(C)(CNC(=O)c1cncc(N2CCCCC2)n1)c1ccccc1 | 4.4 |
| O=C(NCC1CC1)c1cncc(N2CCCN(Cc3ccccc3)CC2)n1 | 3 |
| C[C@H]1CC[C@H](NC(=O)c2cnc(N3CCCCC3)cn2)CC1 | 4.4 |
| O=C(NC1CCCCCC1)c1cnc(N2CCCCC2)cn1 | 3.9 |
| C[C@H]1CC[C@H](NC(=O)c2cnc(N3CCC(CO)CC3)cn2)CC1 | 3.3 |
| CC(C)(CNC(=O)c1cncc(N[C@@H](CO)c2ccccc2)n1)c1ccccc1 | 3.6 |
| CC(CN(C)C)N(C)c1cnc(C(=O)NCC(C)(C)c2ccccc2)cn1 (stereo not drawn) | 2 |
| CC(C)(CNC(=O)c1cnc(N2CCC(CO)CC2)cn1)c1ccccc1 | 3.5 |
| CC(C)(CNC(=O)c1cncc(-c2ccccc2)n1)c1ccccc1 | 2.6 |
| CC(C)(CNC(=O)c1cnc(-c2ccccc2)cn1)c1ccccc1 | 3.4 |
| CCN(C)c1cncc(C(=O)NC2Cc3ccccc3C2)n1 | 3.6 |
| CN(CCO)c1cncc(C(=O)NCC(C)(C)c2ccccc2)n1 | 2.7 |
| O=C(NCC1CC1)c1cncc(NCCc2cccc(O)c2)n1 | 3.2 |
| CN(CCC#N)c1cnc(C(=O)NCC(C)(C)c2ccccc2)cn1 | 2.9 |
| CCCCN(C)c1cncc(C(=O)NC2CCCCCC2)n1 | 3.8 |
| CC(C)(CNC(=O)c1cnc(N2CCCCC2)cn1)c1ccccc1 | 4.5 |

assay: Permeability in artificial membrane assessed as diffusion rate by PAMPA assay; type: ADME; conditions: read-out: permeability

| Compound | Papp [×10⁻⁶ cm/s] |
| --- | --- |
| C[C@H]1CC[C@H](NC(=O)c2cnc(N3CCC(CO)CC3)cn2)CC1 | 25.5 |

— ChEMBL document CHEMBL1138393, “Structure-activity relationships of novel non-competitive mGluR1 antagonists: a potential treatment for chronic pain” (Bioorg Med Chem Lett, 2007)
